Counter-ions that a name gives are not always drawn.

One experiment relates to NQO1 specific enzyme activity in BEAS-2B cells. The experiment can be described thus: BEAS-2B NQO1 MTT assay. Format: cell-based. The conditions noted are these: BEAS-2B cells, 48 hours with compound, MTT readout; read-out: EC50 of NQO1 specific activity induction. The text has this:
NAD(P)H:quinone oxidoreductase 1 (NQO1), also called DT diaphorase, is a homodimeric FAD-containing enzyme that catalyzes obligatory NAD(P)H-dependent two-electron reductions of quinones and protects cells against the toxic and neoplastic effects of free radicals and reactive oxygen species arising from one-electron reductions. The transcription of NQO1 is finely regulated by NRF2, and thus NQO1 activity is a good marker for NRF2 activation. On day one, frozen BEAS-2B cells (ATCC) are thawed in a water bath, counted, and re-suspended at a concentration of 250,000 cells/mL. Fifty microliters of cells are plated in 384 well black clear-bottomed plates. Plates are incubated at 37° C., 5% CO2 overnight. On day two, plates are centrifuged and 50 nL of compound or controls are added to the cells. Plates are then incubated at 37° C., 5% CO2 for 48 hours. On day four, medium is aspirated from the plate and crude cell lysates are made by adding 13 uL of 1× Cell Signaling Technologies lysis buffer with 1 Complete, Mini, EDTA-free Protease Inhibitor Tablet (Roche) for each 10 mL of lysis buffer. After lysis plates are incubated for 20 minutes at room temperature. Two microliters of lysate are removed for use in Cell Titer Glo assay (Promega) and MTT cocktail is prepared (Prochaska et. al. 1998) for measurement of NQO1 activity. Fifty microliters of MTT cocktail is added to each well, plate is centrifuged, and analyzed on an Envision plate reader (Perkin Elmer) using Absorbance 570 nm label for 30 minutes. Product formation is measured kinetically and the EC50 of NQO1 specific activity induction is calculated by plotting the change in absorbance (Delta OD/min) versus the log of compound concentration followed by 3-parameter fitting.
Background: Formazan colour is commonly taken as a measure of viable cells.
Regarding `CCCn1cc(CCC(c2ccc(C)c(Cn3ccnc3CN3CCC(CC)CC3)c2)C(C)(C)C(=O)O)nn1` (single isomer, unassigned) [Example 248, 3-(3-((2-((4-ethylpiperidin-1-yl)methyl)-1H-imidazol-1-yl)methyl)-4-methylphenyl)-2,2-dimethyl-5-(1-propyl-1H-1,2,3-triazol-4-yl)pentanoic Acid], the EC50 is 0.01 to 0.1 µM.
`CCC1CCN(Cc2nccn2Cc2cc(C(CCc3cn(CC)nn3)C(C)C(=O)O)ccc2C)CC1` (single isomer, unassigned) [Example 226, 5-(1-Ethyl-1H-1,2,3-triazol-4-yl)-3-(3-((2-((4-ethylpiperidin-1-yl)methyl)-1H-imidazol-1-yl)methyl)-4-methylphenyl)-2-methylpentanoic acid, Trifluoroacetic Acid Salt]: the EC50 lay in the range of 0.01 to 0.1 µM.
As for “(S)-3-(1,4-Dimethyl-1H- benzo[d][1,2,3]triazol-5- yl)-3-(3-(((R)-2-ethyl-9- fluoro-2,3- dihydrobenzo[f][1,4]oxa- zepin-4(5H)-yl)methyl)-4- methylphenyl)-2,2- dimethylpropanoic acid, trifluoroacetic acid salt [Example 25]”, the EC50 is less than 0.001 µM.
`CC[C@@H]1CN(Cc2cc(C(CCc3cn(CC)nn3)C(C)C(=O)O)ccc2C)Cc2ccccc2O1` (single isomer, unassigned; isomer 3) [Example 120]: the EC50 is 0.001 to 0.01 µM.

The experiment is the same for the next values; noted with them: Homo sapiens, BEAS-2B, 48 h, BEAS-2B cells, 48 hours with compound, MTT readout; read-out: EC50 of NQO1 specific activity induction.
For `CCn1cc(CCC(c2ccc(C)c(CN3Cc4ncccc4OC(C)(C)C3)c2)C(C)(C)C(=O)O)nn1` (stereo not shown) [Example 221, 3-(3-((2,2-Dimethyl-2,3-dihydropyrido[2,3-f][1,4]oxazepin-4(5H)-yl)methyl)-4-methylphenyl)-5-(1-ethyl-1H-1,2,3-triazol-4-yl)-2,2-dimethylpentanoic Acid], the EC50 fell in the range of 0.01 to 0.1 µM.
The same measure, in the same setting: with `CC[C@@H]1CN(Cc2cc([C@H](c3ccc4c(nnn4C)c3C)C(C)C(=O)O)ccc2C)Cc2cc(F)ccc2O1` (stereo partly drawn) [Example 42, (3R)-3-(1,4-Dimethyl-1H-benzo[d][1,2,3]triazol-5-yl)-3-(3-(((R)-2-ethyl-7-fluoro-2,3-dihydrobenzo[f][1,4]oxazepin-4(5H)-yl)methyl)-4-methylphenyl)-2-methylpropanoic Acid, Trifluoroacetic Acid Salt] the figure was 0.1 to 1 µM; with `CC[C@@H]1CN(Cc2cc(C(CC(=O)O)c3ccc4c(nnn4C)c3C)ccc2C)Cc2cc(Cl)ccc2O1` (stereo partly drawn) [Example 77, Ammonium 3-(3-(((R)-7-Chloro-2-ethyl-2,3-dihydrobenzo[f][1,4]oxazepin-4(5H)-yl)methyl)-4-methylphenyl)-3-(1,4-dimethyl-1H-benzo[d][1,2,3]triazol-5-yl)propanate], 1 to 10 µM.
Regarding `CC[C@@H]1CN(Cc2cc(C(c3ccc4c(c3)nnn4C)C(C)(C)C(=O)O)ccc2C)Cc2ccccc2O1` (stereo partly drawn) [Example 103, Ammonium 3-(3-(((R)-2-Ethyl-2,3-dihydrobenzo[f][1,4]oxazepin-4(5H)-yl)methyl)-4-methylphenyl)-2,2-dimethyl-3-(1-methyl-1H-benzo[d][1,2,3]triazol-5-yl)propanoate], the EC50 is less than 0.001 µM.
Consider `Cc1ccc2c(c1)CN(Cc1cc([C@H](CC(=O)O)c3ccc4c(nnn4C)c3C)ccc1C)CC(C)(C)O2` [Example 176, (S)-3-(1,4-Dimethyl-1H-benzo[d][1,2,3]triazol-5-yl)-3-(4-methyl-3-((2,2,7-trimethyl-2,3-dihydrobenzo[f][1,4]oxazepin-4(5H)-yl)methyl)phenyl) propanoic acid], for which the EC50 is 0.01 to 0.1 µM.
Same read-out and setting: with `CCC1CN(Cc2cc(C(CCc3cn(CC)nn3)CC(=O)O)ccc2C)Cc2ccccc2O1` (stereo not shown) [Example 4, 5-(1-Ethyl-1H-1,2,3-triazol-4-yl)-3-(3-((2-ethyl-2,3-dihydrobenzo[f][1,4]oxazepin-4(5H)-yl)methyl)-4-methylphenyl)pentanoic Acid, Trifluoroacetic Acid Salt] the figure was 1 to 10 µM.
`COCC1CN(Cc2cc(C(CC(=O)O)c3ccc4c(nnn4C)c3C)ccc2C)Cc2ccccc2O1` (stereo not shown) [Example 74, 3-(1,4-Dimethyl-1H-benzo[d][1,2,3]triazol-5-yl)-3-(3-((2-(methoxymethyl)-2,3-dihydrobenzo[f][1,4]oxazepin-4(5H)-yl)methyl)-4-methylphenyl)propanoic acid, formic acid salt]: the EC50 is 0.1 to 1 µM.
Same read-out and setting: the same measure for `Cc1ccc(C(CC(=O)O)c2ccc3c(nnn3C)c2C)cc1CN1Cc2ccccc2OC(C)(C)C1` (stereo not shown) [Example 89, 3-(1,4-Diemthyl-1H-benzo[d][1,2,3]triazol-5-yl)-3-(3-((2,2-dimethyl-2,3-dihydrobenzo[f][1,4]oxazepin-4(5H)-yl)methyl)-4-methylphenyl)propanoic acid]: 0.01 to 0.1 µM; for `CC[C@@H]1CN(Cc2cc([C@@H](c3ccc4c(nnn4C)c3C)C(C)(C)C(=O)O)ccc2C)Cc2ccccc2O1` [Example 26, (S)-3-(1,4-Dimethyl-1H-benzo[d][1,2,3]triazol-5-yl)-3-(3-(((R)-2-ethyl-2,3-dihydrobenzo[f][1,4]oxa-zepin-4(5H)-yl)methyl)-4-methylphenyl)-2,2-dimethylpropanoic acid, trifluoroacetic acid salt]: 0.001 to 0.01 µM; for `CC[C@@H]1CN(Cc2cc(C(CCc3cn(CC)nn3)C(C)C(=O)O)ccc2C)Cc2ncccc2O1` (stereo partly drawn) [Example 224, 5-(1-Ethyl-1H-1,2,3-triazol-4-yl)-3-(3-(((R)-2-ethyl-2,3-dihydropyrido[2,3-f][1,4]oxazepin-4(5H)-yl)methyl)-4-methylphenyl)-2-methylpentanoic Acid, 0.20 Formic Acid Salt]: 0.1 to 1 µM.
On the same count and under the same terms, with `Cc1ccc2c(c1)OC(C)(C)CN(Cc1cc([C@@H](CC(=O)O)c3ccc4c(nnn4C)c3C)ccc1C)C2` [Example 179, (R)-3-(1,4-Dimethyl-1H-benzo[d][1,2,3]triazol-5-yl)-3-(4-methyl-3-((2,2,8-trimethyl-2,3-dihydrobenzo[f][1,4]oxazepin-4(5H)-yl)methyl)phenyl) propanoic acid] the figure was 0.01 to 0.1 µM; with `CCn1nnc2c(F)c([C@H](CC(=O)O)c3ccc(C)c(CN4Cc5ccccc5OC(C)(C)C4)c3)ccc21` [Example 65, (R)-3-(3-((2,2-Dimethyl-2,3-dihydrobenzo[f][1,4]oxazepin-4(5H)-yl)methyl)-4-methylphenyl)-3-(1-ethyl-4-fluoro-1H-benzo[d][1,2,3]triazol-5-yl)propanoic Acid, Hydrochloride], 0.01 to 0.1 µM; with `Cc1ccc(C(CC(=O)O)c2ccc3c(nnn3C)c2C)cc1CN1Cc2ccccc2O[C@@H](C)C1` (stereo partly drawn) [Example 98, 3-(1,4-Dimethyl-1H-benzo[d][1,2,3]triazol-5-yl)-3-(4-methyl-3-(((S)-2-methyl-2,3-dihydrobenzo[f][1,4]oxazepin-4(5H)-yl)methyl)phenyl)propanoic Acid, Formic Acid Salt], 0.1 to 1 µM.
Take `Cc1ccc(C(CC(=O)O)c2ccc3c(nnn3C)c2C)cc1Cn1ccnc1C(C)C1CCCCC1` (stereo not shown) [Example 133, Ammonium 3-(3-((2-(1-cyclohexylethyl)-1H-imidazol-1-yl)methyl)-4-methylphenyl)-3-(1,4-dimethyl-1H-benzo[d][1,2,3]triazol-5-yl)propanoate]: the EC50 lay within 0.1 to 1 µM.
Consider `Cc1ccc([C@@H](c2ccc3c(nnn3C)c2C)C(C)(C)C(=O)O)cc1CN1Cc2ncccc2OC(C)(C)C1` [Example 30, formic acid salt], for which the concentration giving a half-maximal response (EC50) was in the range of 0.001 to 0.01 µM.
Take `CCC1CCN(Cc2nccn2Cc2cc([C@H](c3ccc4c(nnn4C)c3C)C(C)C(=O)O)ccc2C)CC1` (stereo partly drawn) [Example 152, (3R)-3-(1,4-Dimethyl-1H-benzo[d][1,2,3]triazol-5-yl)-3-(3-((2-((4-ethylpiperidin-1-yl)methyl)-1H-imidazol-1-yl)methyl)-4-methylphenyl)-2-methylpropanoic Acid, Trifluoroacetic Acid Salt]: the EC50 fell in the range of 0.1 to 1 µM.
Turning to `COc1ccc2c(c1)OC(C)(C)CN(Cc1cc([C@H](CC(=O)O)c3ccc4c(nnn4C)c3C)ccc1C)C2` [Example 168, (S)-3-(1,4-Dimethyl-1H-benzo[d][1,2,3]triazol-5-yl)-3-(3-((8-methoxy-2,2-dimethyl-2,3-dihydrobenzo[f][1,4]oxazepin-4(5H)-yl)methyl)-4-methylphenyl)propanoic acid], the EC50 is 0.01 to 0.1 µM.

Still in this experiment, the particulars now being: Homo sapiens; BEAS-2B cells, 48 hours with compound, MTT readout; read-out: EC50 of NQO1 specific activity induction.
As to `CC[C@@H]1CN(Cc2cc([C@H](CC(=O)O)c3ccc4c(nnn4C)c3C)ccc2C)Cc2ncccc2O1` [Example 258, (S)-3-(1,4-dimethyl-1H-benzo[d][1,2,3]triazol-5-yl)-3-(3-(((R)-2-ethyl-2.3-dihydropyrido[2,3-f][1,4]oxazepin-4(5H)-yl)methyl)-4-methylphenyl)propionic Acid], the EC50 is 0.01 to 0.1 µM.

In general, EC50 refers to the concentration that produces a half-maximal response.
